Laboratory results published in article PMC8126241, “Active Components from Cassia abbreviata Prevent HIV-1 Entry by Distinct Mechanisms of Action” (International Journal of Molecular Sciences, 2021).
Like-named read-outs stand apart in the source and are kept apart here.

What was measured:
sindbisvirus = assay: Broad spectrum antiviral activity, vero cells; assay type: cell-based
[1] = test system: pseudotype virus pNL4.3ΔEnvLuc-HXB2; assay: microbe, parasite or virus in culture; settings: Human immunodeficiency virus 1, HXB2, read-out: IC50 HIV-1 entry
PBMCs [2] = assay type: cell-based, human
Method: To assess drug cytotoxicity, PBMCs were incubated with or without drugs in a 96-well round bottom plate (Thermo Fisher, Asse, Belgium) at 2 × 10^5/200 μL/well. After 2 days, cells were washed with PBS and stained with 0.1 μL near-IR fluorescent reactive dye (Life technologies, Ghent, Belgium) in 100 μL PBS for 20 min at room temperature in dark. Stained cells were measured by flow cytometry (FACSCanto, BD biosciences, Belgium).

Para-influenza-3 virus = assay: organism not typed; assay type: cell-based; settings: vero cells
CCR5 = target: T1, CCR5 (Homo sapiens, UniProt P51681); assay: Binding competition with anti-CCR5 antibody 2D7; settings: anti-CCR5 antibody 2D7, U373-CD4-CCR5 cells
T1 construct: host or cells: U373-CD4-CCR5 cells
Method: Binding competition between increasing concentrations of compounds and FITC-conjugated mouse anti-human CD4 clone RPA-4 (Biolegend, Amsterdam, Netherlands), PE-conjugated mouse anti-Human CXCR4 clone 12G5, and PE-conjugated mouse anti-human CCR5 clone 2D7 (BD Pharma, Aalst, Belgium) to U373-CD4-CXCR4 and U373-CD4-CCR5 cells was first tested by flow cytometry (FACSCanto). […] After 1 h of incubation at 4 °C, cells were washed with FACS buffer (1% bovine serum albumin, 0.1% N3Na in PBS, Sigma), and Mean Fluorescence Intensity (MFI) was measured. […] Internalization was stopped after 30 min by addition of NaN3 (0.1%) on ice. Cells were stained with anti-human CXCR4 clone 4G10 (BD, Belgium) or anti-human CCR5 (CD195) clone T21/8, (eBioscience, Asse, Belgium), Near-IR fluorescent reactive dye during 1 h at 4 °C, washed with FACS buffer, and a secondary PE-conjugated goat anti-mouse antibody (Jackson ImmunoResearch, West Grove, PA, USA).

[3] = test system: Feline corona virus (FIPV); assay: Broad spectrum antiviral activity, CRFK cells; assay type: cell-based; settings: Alphacoronavirus 1
[4] = test system: Herpes simplex virus-1 (KOS); assay: Broad spectrum antiviral activity, HEL cells; assay type: cell-based
PBMCs [5] = assay type: cell-based, human; remark: listed apart in the source
Method: To measure apoptosis, PBMCs were incubated with or without drugs in a 96-well round bottom plate at 2 × 10^5/200 μL/well. After 2 days, cells were washed with PBS and stained with 2.5 μL Annexin-V-APC (Biosciences, Aalst, Belgium) in 100 μL staining buffer containing 10 mmol/L HEPES pH7.4, 140 mmol/L NaCl, and 2.5 mmol/L CaCl2 for 20 min at room temperature in dark. Cells were then washed with staining buffer and incubated with 100 μL 0.1 μg/mL propidium iodide (PI) (Thermo Fisher, Asse, Belgium) for 5 min at room temperature in dark. Stained cells were measured by flow cytometry (FACSCanto, BD, Aalst, Belgium).

[6] = test system: Vesicular stomatitis virus; assay: microbe, parasite or virus in culture; assay type: cell-based
PBMCs [7] = test system: PBMCs
Coxsackie virus B4 = assay: Broad spectrum antiviral activity, HeLa cells; assay type: cell-based; settings: Enterovirus B
Human corona virus = assay: Broad spectrum antiviral activity, HEL cells; assay type: cell-based
HeLa cells = test system: HeLa cells
Method: Dual chamber transmission assay was performed as previously described. HeLa cells were seeded into an upper chamber of a transwell plate (Sigma-Aldrich, Liège, Belgium), while TZM-bl cells were seeded in the lower chamber. Trans Epithelial Electric Resistance (TEER) was measured using Millicell-ERS Volt-Ohm Meter. HIV-1 ADA-M (200 pg) and drugs were added to the upper chamber after 4 days when TEER reached 150 Ohm/cm^2. 24 h after infection luciferase value of TZM-bl cells lysate was measured using the Luciferase System Kit and the POLARstar Omega Plate Reader. Data were analyzed using GraphPrism. The HIV-1 DC-SIGN transmission assay was performed as previously described.

[8] = test system: Influenza A/H1N1 A/Ned/378/05; assay: Broad spectrum antiviral activity, MDCK cells; assay type: cell-based; settings: Influenza A virus

T1 sequence (P51681 whole entry): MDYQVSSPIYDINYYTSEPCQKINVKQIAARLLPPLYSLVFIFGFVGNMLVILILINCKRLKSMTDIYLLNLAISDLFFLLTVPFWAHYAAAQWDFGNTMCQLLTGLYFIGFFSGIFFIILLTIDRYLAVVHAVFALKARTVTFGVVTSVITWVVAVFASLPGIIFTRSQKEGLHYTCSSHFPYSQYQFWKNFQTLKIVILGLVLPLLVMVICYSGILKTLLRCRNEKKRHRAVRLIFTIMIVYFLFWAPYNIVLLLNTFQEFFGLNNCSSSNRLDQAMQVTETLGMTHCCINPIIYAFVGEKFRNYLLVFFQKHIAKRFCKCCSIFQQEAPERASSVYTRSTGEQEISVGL

Oc1cc(O)cc(/C=C/c2ccc(O)c(O)c2)c1 [piceatannol, trans-3,3′,4,5′-tetrahydroxystilbene]
IC50 (sindbisvirus): > 100 µM | IC50 [1]: 10.3 ± 5.74 µM | Cytotoxicity in PBMCs (PBMCs [2]): not cytotoxic | IC50 (Para-influenza-3 virus): > 100 µM | Inhibition of CCR5 binding (CCR5): neither CE nor piceatannol did | IC50 [3]: > 100 µM | IC50 [4]: 47.5 ± 3.5 µM | IC50 ([4]; Human alphaherpesvirus 1, HEL): ~45 µM | Induction of apoptosis in PBMCs (PBMCs [5]): did not induce any apoptosis | IC50 [6]: 79.2 ± 17 µM | IC50 ([6]; Vesicular stomatitis virus, U-87 MG): 79.2 ± 17.2 µM | Effect on expression of CD25 and CD69 (PBMCs [7]): did not have any effect | IC50 (Coxsackie virus B4): > 100 µM | IC50 (Human corona virus): > 100 µM | Effect on confluence layer's TEER and epithelial cells viability (HeLa cells): without affecting | IC50 [8]: > 100 µM
